Measurements from patent US10508109B2 (priority 2015, dated 2019).
Where two headings read alike, the source gives them in different places.

How the values were obtained:
CCD-18Co = test: Cell-based assay, anti-proliferative activity (Cell Counting Kit-8, 72 hours); conditions: Homo sapiens, CCD-18Co cells, read-out: IC50 (μM) CCD-18Co
Method in brief: (§1)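 CCK-8 viability read 72 h after compound exposure over an 8-point series from 1.5625 to 100 micro-M plus zero. Seeding density 2,000–3,000 cells/well; IC50 from the dilution series.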

HFL1 = test: as above; conditions: Homo sapiens, HFL1 cells, read-out: IC50 (μM) HFL1
Method in brief: as §1

HCT-116 = test: as above; conditions: Homo sapiens, HCT-116 cells, read-out: IC50 (μM) HCT-116
Method in brief: as §1

PC14 = test: as above; conditions: Homo sapiens, PC-14, PC14 cells, read-out: IC50 (μM) PC14
Method in brief: as §1

SUV39H2 = SUV39H2 (Homo sapiens (Human), UniProt Q9H5I1); conditions: read-out: IC50 (μM) Suv 39H2 assay; enzyme assay
SUV39H2, sequence (Q9H5I1 whole entry): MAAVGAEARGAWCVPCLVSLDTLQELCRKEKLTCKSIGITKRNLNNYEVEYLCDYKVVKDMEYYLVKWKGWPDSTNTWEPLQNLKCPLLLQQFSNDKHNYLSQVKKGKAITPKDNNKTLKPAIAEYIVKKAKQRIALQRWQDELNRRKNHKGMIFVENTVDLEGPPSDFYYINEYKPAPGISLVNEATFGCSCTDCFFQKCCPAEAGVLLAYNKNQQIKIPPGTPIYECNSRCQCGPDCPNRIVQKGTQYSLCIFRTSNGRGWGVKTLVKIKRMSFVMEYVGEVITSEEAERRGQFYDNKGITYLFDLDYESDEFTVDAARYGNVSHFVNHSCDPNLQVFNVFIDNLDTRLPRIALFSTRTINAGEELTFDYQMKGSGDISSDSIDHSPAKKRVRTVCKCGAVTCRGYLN

A549 = test: Cell-based assay, anti-proliferative activity (Cell Counting Kit-8, 72 hours); conditions: Homo sapiens, A549 cells, read-out: IC50 (μM) A549
Method in brief: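 After compound exposure of cells in 96-well plates, growth was measured colorimetrically and converted into IC50 values.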

| Structure (SMILES) | IC50 (CCD-18Co; Cell Counting Kit-8, 72 hours) | IC50 (HFL1; Cell Counting Kit-8, 72 hours) | IC50 (HCT-116; Cell Counting Kit-8, 72 hours) | IC50 (PC14; Cell Counting Kit-8, 72 hours) | IC50 (SUV39H2) | IC50 (A549; Cell Counting Kit-8, 72 hours) | IC50 (CCD-18Co; 72 hours, Cell Counting Kit-8) | IC50 (HFL1; 72 hours, Cell Counting Kit-8) | IC50 (HCT-116; 72 hours, Cell Counting Kit-8) | IC50 (PC14; 72 hours, Cell Counting Kit-8) | IC50 (A549; 72 hours, Cell Counting Kit-8) |
| --- | --- | --- | --- | --- | --- | --- | --- | --- | --- | --- | --- |
| CCCS(=O)(=O)NC1CCN(c2ccn3cc(-c4cc(Cl)c(OC)cc4OC)nc3c2)CC1 [Example 174, N-{1-[2-(5-chloro-2,4-dimethoxyphenyl)imidazo[1,2-a]pyridin-7-yl]piperidin-4-yl}propane-1-sulfonamide] | 2 µM | 1.7 µM | 1.8 µM | 2.3 µM | 0.0104 µM | 3 µM | – | – | – | – | – |
| COc1cc(OC)c(-c2cn3ccc(N4CCCN(S(=O)(=O)C(F)(F)F)CC4)cc3n2)cc1Cl [Example 188, 2-(5-chloro-2,4-dimethoxyphenyl)-7-{4-[(trifluoromethyl)sulfonyl]-1,4-diazepan-1-yl}imidazo[1,2-a]pyridine] | 1.4 µM | 1.5 µM | 1.6 µM | 1.6 µM | 0.0369 µM | 1.6 µM | – | – | – | – | – |
| COc1cc(OC)c(-c2cn3ccc(C4=CCN(CCN5CCOCC5)CC4)cc3n2)cc1Cl [Example 144, 4-(2-{4-[2-(5-chloro-2,4-dimethoxyphenyl)imidazo[1,2-a]pyridin-7-yl]-5,6-dihydropyridin-1(2H)-yl}ethyl)morpholine] | 6.3 µM | 7 µM | 5.9 µM | 1.5 µM | 0.0191 µM | 3.9 µM | – | – | – | – | – |
| COc1cc(OC)c(-c2cn3ccc(OC4CCN(S(=O)(=O)c5cccs5)CC4)cc3n2)cc1Cl [Example 280, 2-(5-chloro-2,4-dimethoxyphenyl)-7-((1-(thiophen-2-ylsulfonyl)piperidin-4-yl)oxy)imidazo[1,2-a]pyridine] | – | – | – | – | 0.0711 µM | – | 1.7 µM | 1.6 µM | 1.9 µM | 0.8 µM | 2 µM |
| CCOP(=O)(CCN1CCN(c2ccn3cc(-c4cc(Cl)c(OC)cc4OCCCN(C)C)nc3c2)CC1)OCC [Example 219, diethyl (2-(4-(2-(5-chloro-2-(3-(dimethylamino)propoxy)-4-methoxyphenyl)-imidazo[1,2-a]pyridin-7-yl)piperazin-1-yl)ethyl)phosphonate] | – | – | – | – | 0.0201 µM | – | 10 µM | 7.4 µM | 10 µM | 7.6 µM | 10 µM |
| CC[C@@H](C)[C@H](NC(=O)OC(C)(C)C)C(=O)Nc1ccn2cc(-c3cc(Cl)c(OC)cc3OC)nc2c1 [Example 257, tert-butyl ((2S,3R)-1-((2-(5-chloro-2,4-dimethoxyphenyl)imidazo[1,2-a]-pyridin-7-yl)amino)-3-methyl-1-oxopentan-2-yl)carbamate] | – | – | – | – | 0.0435 µM | – | 5.1 µM | 5.2 µM | 5.5 µM | 3 µM | 5 µM |
| COc1cc(OC)c(-c2cn3ccc(-c4ccc(C(=O)N5CCNCC5)cc4)cc3n2)cc1Cl [Example 254, (4-(2-(5-chloro-2,4-dimethoxyphenyl)imidazo[1,2-a]pyridin-7-yl)-phenyl)(piperazin-1-yl)methanone] | – | – | – | – | 0.0383 µM | – | 3.1 µM | 2.8 µM | 2.6 µM | 0.99 µM | 2.7 µM |
| COc1cc(C)c(-c2cn3ccc(N4CCN(S(=O)(=O)C5CC5)C(CO)C4)cc3n2)cc1Cl (stereo not drawn) [Example 262, (4-(2-(5-chloro-4-methoxy-2-methylphenyl)imidazo[1,2-a]pyridin-7-yl)-1-(cyclopropylsulfonyl)piperazin-2-yl)methanol] | – | – | – | – | 0.0453 µM | – | 5.5 µM | 3.2 µM | 3.2 µM | 1.1 µM | 2.4 µM |
| COc1cc(OC)c(-c2cn3ccc(N4CCN(C(=O)OC(C)(C)C)CC4)nc3n2)cc1Cl [Example 145, tert-butyl 4-[2-(5-chloro-2,4-dimethoxyphenyl)imidazo[1,2-a]pyrimidin-7-yl]piperazine-1-carboxylate] | 2.8 µM | 2.8 µM | 3.1 µM | 1.5 µM | 0.0738 µM | 1.9 µM | – | – | – | – | – |
| CCS(=O)(=O)N1CCN(c2ccn3cc(-c4cc(Cl)c(OC)cc4OC)nc3c2)CC1 [Example 172, 2-(5-chloro-2,4-dimethoxyphenyl)-7-[4-(ethylsulfonyl)piperazin-1-yl]imidazo[1,2-a]pyridine] | 1.8 µM | 1.8 µM | 1.2 µM | 1.6 µM | 0.0125 µM | 1.9 µM | – | – | – | – | – |
| COc1cc(OC)c(-c2cn3ccc(C4=CCN(CCO)CC4)cc3n2)cc1Cl [Example 134, 2-(4-(2-(5-chloro-2,4-dimethoxyphenyl)imidazo[1,2-a]pyridin-7-yl)-5,6-dihydropyridin-1(2H)-yl)ethanol] | 5.4 µM | 3.8 µM | 6.8 µM | 5.3 µM | 0.0576 µM | 5 µM | – | – | – | – | – |
| CC[C@H](C)[C@H](NC)C(=O)Nc1ccn2cc(-c3cc(Cl)c(OC)cc3OC)nc2c1 [Example 266, (2S,3S)—N-(2-(5-chloro-2,4-dimethoxyphenyl)imidazo[1,2-a]pyridin-7-yl)-3-methyl-2-(methylamino)pentanamide] | – | – | – | – | 0.0454 µM | – | 1.3 µM | 1.2 µM | 2.8 µM | 1.5 µM | 1.5 µM |
| COc1cc(OC)c(-c2cn3ccc(N4CC[C@H](NCc5ccccc5)C4)cc3n2)cc1Cl [Example 301, (S)—N-benzyl-1-(2-(5-chloro-2,4-dimethoxyphenyl)imidazo[1,2-a]pyridin-7-yl)pyrrolidin-3-amine] | – | – | – | – | 0.0107 µM | – | 1.1 µM | 0.69 µM | 0.79 µM | 1.5 µM | 1.4 µM |
| COc1cc(OCCCN(C)C)c(-c2cn3ccc(N4CCN(C(=O)C(C)(C)C)CC4)cc3n2)cc1Cl [Example 156, 1-(4-(2-(5-chloro-2-(3-(dimethylamino)propoxy)-4-methoxyphenyl)imidazo[1,2-a]pyridine-7-yl)piperazin-1-yl)-2,2-dimethylpropan-1-one] | 7.2 µM | 4.4 µM | 6.2 µM | 5.8 µM | 0.0344 µM | 6.3 µM | – | – | – | – | – |
| COC(=O)N1CCN(c2ccn3cc(-c4cc(Cl)c(OC)cc4OCCCN(C)C)nc3c2)CC1 [Example 152, methyl 4-(2-(5-chloro-2-(3-(dimethylamino)propoxy)-4-methoxyphenyl)-imidazo[1,2-a]pyridin-7-yl)piperazine-1-carboxylate] | 5.3 µM | 1.9 µM | 7.1 µM | 2.7 µM | 0.0199 µM | 6.4 µM | – | – | – | – | – |
| COc1cc(OC)c(-c2cn3cc(NCCN)c(OC)cc3n2)cc1Cl [Example 75, N^1-(2-(5-chloro-2,4-dimethoxyphenyl)-7-methoxyimidazo[1,2-a]-pyridin-6-yl)ethane-1,2-diamine] | 7.2 µM | 3.5 µM | 6.7 µM | 5.7 µM | 0.00271 µM | 6.9 µM | – | – | – | – | – |
| COc1cc(OC)c(-c2cn3ccc(N4CCCN(C(=O)OC(C)(C)C)CC4)cc3n2)cc1Cl [Example 184, tert-butyl 4-[2-(5-chloro-2,4-dimethoxyphenyl)imidazo[1,2-a]pyridin-7-yl]-1,4-diazepane-1-carboxylate] | 4.9 µM | 2.2 µM | 5.7 µM | 2.5 µM | 0.0285 µM | 3.8 µM | – | – | – | – | – |
| COc1cc(OC)c(-c2cn3ccc(N4CCC(CCNC(=O)OC(C)(C)C)CC4)nc3n2)cc1Cl [Example 61, tert-butyl (2-{1-[2-(5-chloro-2,4-dimethoxyphenyl)imidazo[1,2-a]pyrimidin-7-yl]piperidin-4-yl}-ethyl)carbamate] | 4.3 µM | 3.4 µM | 4.1 µM | 1.7 µM | 0.00831 µM | 4.5 µM | – | – | – | – | – |
| COc1cc(OC)c(-c2cn3ccc(N[C@H]4CC[C@H](CN5CCN(S(C)(=O)=O)CC5)CC4)cc3n2)cc1Cl [Example 289, 2-(5-chloro-2,4-dimethoxyphenyl)-trans-N-(4-((4-(methylsulfonyl)piperazin-1-yl)methyl)cyclohexyl)imidazo-[1,2-a]pyridin-7-amine] | – | – | – | – | 0.028 µM | – | 0.72 µM | 0.74 µM | 0.83 µM | 0.77 µM | 0.63 µM |
| COC(=O)NC1CCN(c2ccn3cc(-c4cc(Cl)c(OC)cc4OC)nc3c2)CC1 [Example 122, methyl (1-(2-(5-chloro-2,4-dimethoxyphenyl)imidazo[1,2-a]pyridin-7-yl)piperidin-4-yl)carbamate] | 6.4 µM | 4.9 µM | 5.8 µM | 3.3 µM | 0.00814 µM | 2.7 µM | – | – | – | – | – |
| CCS(=O)(=O)NC1CCN(c2ccn3cc(-c4cc(Cl)c(OC)cc4OC)nc3c2)CC1 [Example 173, N-{1-[2-(5-chloro-2,4-dimethoxyphenyl)imidazo[1,2-a]pyridin-7-yl]piperidin-4-yl}ethanesulfonamide] | 0.99 µM | 0.53 µM | 1.9 µM | 1.6 µM | 0.00961 µM | 1.5 µM | – | – | – | – | – |
